Source: patent US12648945B2, “Compositions and methods for treating systemic lupus erythematosus” (ASCENTAGE PHARMA (SUZHOU) CO., LTD., priority 2020, dated 2026)

Columns and labels:
MRL/lpr mice [1] = experiment: Serum anti-dsDNA autoantibody ELISA in MRL/lpr mouse model of SLE; format: in vivo; settings: end of study
Text: (§1) Female MRL/MpJ-Fas lpr/J mice (18-20 g, 7-8 weeks old) were obtained from The Jackson Laboratory. These mice are homozygous for the lymphoproliferation spontaneous mutation (Fas^lpr), and show systemic autoimmunity, massive lymphadenopathy associated with proliferation of aberrant T cells, arthritis, and immune complex glomerulonephrosis. Thus, these mice are useful as a model in the study of systemic lupus erythematosus (SLE).
(§2) Animals were housed and handled in a temperature-controlled environment with a 12-h light/12-h dark cycle. […] The protocols and procedures involving the care and use of animals were approved by the Institutional Animal Care and Use Committee (IACUC) of WuXiAppTec (Shanghai) Co., Ltd. (Shanghai, China).
Anti-dsDNA autoantibody levels were measured by ELISA. Briefly, a 96-well flat plate was coated with 10 μg/mL calf thymus ds-DNA (Sigma-Aldrich, MA, USA) at 4° C. overnight. After washing with PBS containing 0.05% Tween 20 (PBS-T) and blocking with 1% bovine serum albumin, serum samples (4000× dilution) were added and incubated for 1 h at room temperature. […] Lastly, ultra TMB-ELISA substrate solution (Pierce Biotechnology, IL, USA) was added and incubated for another 30 min, and the OD values at […] were recorded after the reaction was stopped.

MRL/lpr mice [2] = experiment: Lymph node (lymphadenopathy) score in MRL/lpr mouse model of SLE; format: in vivo; settings: week 18, p<0.0001 vs vehicle
Text: as §1, §2
Lymph nodes were scored weekly throughout the study, and were expressed using a scoring system from 0 to 6 based on the diameter of lymph nodes (0—normal; 1—<1 cm in one site; 2—<1 cm in two sites; 3—<1 cm in three sites; 4—>1 cm in one site and <1 cm in two sites); 5—>1 cm in two sites and <1 cm in one site; 6—>1 cm in three sites).

MRL/lpr mice [3] = experiment: Urine protein (Coomassie Brilliant Blue assay) in MRL/lpr mouse model of SLE; format: in vivo; settings: week 18
Text: as §1, §2
Urine protein was individually evaluated in each mouse on a biweekly basis using Coomassie Brilliant Blue (CBB) assay with a urine protein test kit (Nanjing Jiancheng Biotechnology Institute, Jiangsu, China).

MRL/lpr mice [4] = experiment: Flow cytometry lymphocyte counts in PBMC, spleen and kidney of MRL/lpr mice; format: in vivo, mouse; settings: 100 mg/kg po qd
Text: as §1, §2
The spleens and kidneys were harvested from the mice at the conclusion of the study (week 18) and digested into single-cell suspensions. Peripheral blood mononuclear cell (PBMC) were obtained after lysing red blood cells in the whole blood. Cells were stained with the following florescence-labelled antibodies: PerCP-Cyanine5.5-conjugated anti-mouse CD8a (BD Biosciences), AF700-conjugated anti-mouse CD3 (BD Biosciences), PE-eFluor610-conjugated anti-mouse B220 (BD Biosciences), e506-conjugated anti-mouse CD45 (BD Biosciences), BV605-conjugated anti-mouse CD138 (BioLegend), and BV711-conjugated anti-mouse CD4 (BioLegend).
All cells were primarily gated on live lymphocytes based on forward scatter (FCS) and side scatter (SSC). Samples were analyzed on a flow cytometer (BD FACSCalibur, USA) to count the number of each subtype of lymphocytes.
Of note, the reduction of double negative T cells were most significant compared to other lymphocytes. […] Without being bound by theory, the reduced infiltration by pro-inflammatory CD4+ cells and double-negative T cells may be responsible in part for the observed efficacy in treating lupus nephritis.

MRL/lpr mice [5] = experiment: Skin lesion score in MRL/lpr mouse model of SLE; format: in vivo; settings: week 18, p<0.0001 vs vehicle
Text: as §1, §2
Skin lesions were scored every week starting from week 12 and were expressed using a scoring system from 0 to 4 (0—normal; 1—small lesion with diameter between 2 to 4 mm; 2—lesion area
<0.5 cm^2; 3—lesion area between 0.5 cm^2 to 1 cm^2; 4—lesion area >1 cm^2).

MRL/lpr mice [6] = experiment: Kidney histopathological scores of lupus nephritis in MRL/lpr mouse model of SLE; format: in vivo; settings: week 18
Text: as §1, §2
At the end of the study, the spleen and lymph nodes were collected and weighed. […] The histopathological score was evaluated microscopically in a blinded manner, vide infra.
The histopathological score was evaluated microscopically in a blinded manner. The […] glomerulonephritis score (GN score) was evaluated using scoring from 0 to 4 (0—normal; 1—mild, focal or early proliferation; 2—moderate or definite proliferation and increased matrix; 3—diffuse and focal or diffuse proliferation; 4—severe diffuse proliferation with crescent/sclerosis). […]

Mcl-1 = Mcl-1 (Homo sapiens, UniProt Q07820); experiment: FP saturation binding of fluorescent probe to Mcl-1; settings: 2 nM probe
Chain of Mcl-1 (Q07820 whole entry): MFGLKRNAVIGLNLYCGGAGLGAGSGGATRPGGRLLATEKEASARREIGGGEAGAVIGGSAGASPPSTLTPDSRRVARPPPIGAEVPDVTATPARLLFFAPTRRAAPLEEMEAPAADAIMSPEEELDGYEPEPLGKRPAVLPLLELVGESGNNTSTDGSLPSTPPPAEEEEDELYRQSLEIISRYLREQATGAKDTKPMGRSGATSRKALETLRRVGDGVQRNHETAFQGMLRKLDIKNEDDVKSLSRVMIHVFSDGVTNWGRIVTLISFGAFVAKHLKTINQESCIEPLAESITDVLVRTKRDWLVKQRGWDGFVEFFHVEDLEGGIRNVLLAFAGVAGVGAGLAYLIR
Text: Bcl-XL, and Mcl-1, respectively.

[7] = 30 mg/kg po qd, p<0.05 vs vehicle
[8] = 100 mg/kg po qd, p<0.0001 vs vehicle

## O=C(NS(=O)(=O)c1ccc(NC[C@H]2COCCO2)c([N+](=O)[O-])c1)c1ccc(N2CCN(CC3=C(c4ccc(Cl)cc4)CC4(CCC4)CC3)CC2)cc1Oc1cnc2[nH]ccc2c1 [Compound 1, (S)-N-((4-(((1,4-dioxan-2-yl)methyl)amino)-3-nitrophenyl)sulfonyl)-2-((1H-pyrrolo[2,3-b]pyridin-5-yl)oxy)-4-(4-((6-(4-chlorophenyl)spiro[3.5]non-6-en-7-yl)methyl)piperazin-1-yl)benzamide]
MRL/lpr mice [1]; [7]
  serum anti-dsDNA autoantibody level, % of the vehicle group: 76.8%
MRL/lpr mice [1]; [8]
  serum anti-dsDNA autoantibody level, % of the vehicle group: 56.4%
MRL/lpr mice [2]; 30 mg/kg po qd
  lymphadenopathy score (0 to 6): 2.7±0.4
MRL/lpr mice [2]; 100 mg/kg po qd
  lymphadenopathy score (0 to 6): 1.6±0.4
MRL/lpr mice [3]; [7]
  urine protein level: 536.1 ± 146.8 mg/L
MRL/lpr mice [3]; [8]
  urine protein level: 266.8 ± 37.7 mg/L
MRL/lpr mice [4]; week 18, PBMC (FIG. 6)
  number of lymphocytes in PBMC (total, T, CD4+ T, CD8+ T, double-negative T, B, activated B, plasmablasts, plasma cells, CD138+ cells): significantly reduced
MRL/lpr mice [4]; week 18, kidney (FIG. 8)
  number of pro-inflammatory CD4+ T cells and double-negative T cells in the kidney: significantly reduced
MRL/lpr mice [4]; week 18, spleen (FIG. 7)
  number of lymphocytes in spleen (total, T, CD4+ T, CD8+ T, double-negative T, B, activated B, plasmablasts, plasma cells, CD138+ cells): significantly reduced
MRL/lpr mice [5]; 30 mg/kg po qd
  skin lesion score: significantly reduced
MRL/lpr mice [5]; 100 mg/kg po qd
  skin lesion score: significantly reduced
MRL/lpr mice [6]; 100 mg/kg po qd
  individual and total lupus nephritis pathological scores, significance: Statistical significance was achieved
MRL/lpr mice [6]; 30 and 100 mg/kg po qd
  pathological score (glomerulonephritis, interstitial nephritis, vasculitis): dose-dependently reduced

## Flu-BID: Fluorescein labeled BID (79-99) peptide, fluorescent probe in FP assay for Mcl-1
Mcl-1
  Kd: 6.9 ± 0.9 nM
